{"source": "PubChem BioAssay AID1259407", "about": "(Chemical Carcinogenesis Research Information System (CCRIS), 2018)", "tested_on": "CCRIS mutagenicity, Ames/micronucleus/aberration tests", "assay": "CCRIS mutagenicity studies", "note": "Calls of active or inactive are those of the source. How the calls were made is not given here."}
{"smiles": "CC(=O)Nc1ccc(N=Nc2cc(C)ccc2O)cc1", "values": [{"measurement": "mutagenic call", "setting": "End Point: IN VITRO CHROMOSOMAL ABERRATIONS, Test System: CHO CELLS, Metabolic Activation: NONE", "value": "inactive; negative"}, {"measurement": "mutagenic call", "setting": "End Point: IN VITRO CHROMOSOMAL ABERRATIONS, Test System: CHO CELLS, Metabolic Activation: RAT, LIVER, S-9, AROCLOR 1254", "value": "inactive; negative"}, {"measurement": "mutagenic call", "setting": "Test System: AMES SALMONELLA TYPHIMURIUM, Strain/Indicator: TA97, Metabolic Activation: HAMSTER, LIVER, S-9, AROCLOR 1254 (10%), Method: PREINCUBATION", "value": "active; positive"}, {"measurement": "mutagenic call", "setting": "Test System: AMES SALMONELLA TYPHIMURIUM, Strain/Indicator: TA97, Metabolic Activation: NONE, Method: PREINCUBATION", "value": "active; positive"}, {"measurement": "mutagenic call", "setting": "Test System: AMES SALMONELLA TYPHIMURIUM, Strain/Indicator: TA97, Metabolic Activation: RAT, LIVER, S-9, AROCLOR 1254 (10%), Method: PREINCUBATION", "value": "active; positive"}, {"measurement": "mutagenic call", "setting": "Test System: AMES SALMONELLA TYPHIMURIUM, Strain/Indicator: TA98, Metabolic Activation: HAMSTER, LIVER, S-9, AROCLOR 1254 (5, 10, 20%), Method: PREINCUBATION", "value": "active; positive"}, {"measurement": "mutagenic call", "setting": "Test System: AMES SALMONELLA TYPHIMURIUM, Strain/Indicator: TA98, Metabolic Activation: HAMSTER, LIVER, S-9, AROCLOR 1254 (10%), Method: PREINCUBATION", "value": "active; positive"}, {"measurement": "mutagenic call", "setting": "Test System: AMES SALMONELLA TYPHIMURIUM, Strain/Indicator: TA98, Metabolic Activation: HAMSTER, LIVER, S-9, AROCLOR 1254, Method: STANDARD PLATE", "value": "active; positive"}, {"measurement": "mutagenic call", "setting": "Test System: AMES SALMONELLA TYPHIMURIUM, Strain/Indicator: TA98, Metabolic Activation: HAMSTER, LIVER, S-9, Method: PREINCUBATION (PRIVAL METHOD)", "value": "active; positive"}, {"measurement": "mutagenic call", "setting": "Test System: AMES SALMONELLA TYPHIMURIUM, Strain/Indicator: TA98, Metabolic Activation: NONE, Method: PREINCUBATION", "value": "active; positive"}, {"measurement": "mutagenic call", "setting": "Test System: AMES SALMONELLA TYPHIMURIUM, Strain/Indicator: TA98, Metabolic Activation: NONE, Method: STANDARD PLATE", "value": "active; positive"}, {"measurement": "mutagenic call", "setting": "Test System: AMES SALMONELLA TYPHIMURIUM, Strain/Indicator: TA98, Metabolic Activation: RAT, LIVER, S-9, AROCLOR 1254 (10%), Method: PREINCUBATION", "value": "active; positive"}, {"measurement": "mutagenic call", "setting": "Test System: AMES SALMONELLA TYPHIMURIUM, Strain/Indicator: TA98, Metabolic Activation: RAT, LIVER, S-9, AROCLOR 1254, HAMSTER, LIVER, S-9, AROCLOR 1254, Method: STANDARD PLATE", "value": "active; positive"}, {"measurement": "mutagenic call", "setting": "Test System: AMES SALMONELLA TYPHIMURIUM, Strain/Indicator: TA100, Metabolic Activation: HAMSTER, LIVER, S-9, AROCLOR 1254 (10%), Method: PREINCUBATION", "value": "active; positive"}, {"measurement": "mutagenic call", "setting": "Test System: AMES SALMONELLA TYPHIMURIUM, Strain/Indicator: TA100, Metabolic Activation: HAMSTER, LIVER, S-9, AROCLOR 1254, Method: STANDARD PLATE", "value": "active; positive"}, {"measurement": "mutagenic call", "setting": "Test System: AMES SALMONELLA TYPHIMURIUM, Strain/Indicator: TA100, Metabolic Activation: HAMSTER, LIVER, S-9, Method: PREINCUBATION (PRIVAL METHOD)", "value": "active; positive"}, {"measurement": "mutagenic call", "setting": "Test System: AMES SALMONELLA TYPHIMURIUM, Strain/Indicator: TA100, Metabolic Activation: NONE, Method: PREINCUBATION", "value": "active; positive"}, {"measurement": "mutagenic call", "setting": "Test System: AMES SALMONELLA TYPHIMURIUM, Strain/Indicator: TA100, Metabolic Activation: RAT, LIVER, S-9, AROCLOR 1254 (10%), Method: PREINCUBATION", "value": "active; positive"}, {"measurement": "mutagenic call", "setting": "Test System: AMES SALMONELLA TYPHIMURIUM, Strain/Indicator: TA1535, Metabolic Activation: HAMSTER, LIVER, S-9, AROCLOR 1254 (10%), Method: PREINCUBATION", "value": "inactive; negative"}, {"measurement": "mutagenic call", "setting": "Test System: AMES SALMONELLA TYPHIMURIUM, Strain/Indicator: TA1535, Metabolic Activation: NONE, Method: PREINCUBATION", "value": "inactive; negative"}, {"measurement": "mutagenic call", "setting": "Test System: AMES SALMONELLA TYPHIMURIUM, Strain/Indicator: TA1535, Metabolic Activation: RAT, LIVER, S-9, AROCLOR 1254 (10%), Method: PREINCUBATION", "value": "inactive; negative"}, {"measurement": "mutagenic call", "setting": "Test System: AMES SALMONELLA TYPHIMURIUM, Strain/Indicator: TA1537, Metabolic Activation: NONE, Method: STANDARD PLATE", "value": "active; positive"}, {"measurement": "mutagenic call", "setting": "Test System: AMES SALMONELLA TYPHIMURIUM, Strain/Indicator: TA1537, Metabolic Activation: RAT, LIVER, S-9, AROCLOR 1254, HAMSTER, LIVER, S-9, AROCLOR 1254, Method: STANDARD PLATE", "value": "active; positive"}, {"measurement": "mutagenic call", "setting": "Test System: AMES SALMONELLA TYPHIMURIUM, Strain/Indicator: TA1538, Metabolic Activation: NONE, Method: STANDARD PLATE", "value": "active; positive"}, {"measurement": "mutagenic call", "setting": "Test System: AMES SALMONELLA TYPHIMURIUM, Strain/Indicator: TA1538, Metabolic Activation: RAT, LIVER, S-9, AROCLOR 1254, HAMSTER, LIVER, S-9, AROCLOR 1254, Method: STANDARD PLATE", "value": "active; positive"}, {"measurement": "mutagenic call", "setting": "Test System: Mouse lymphoma, Strain/Indicator: L5178Y (tk+/tk-), Metabolic Activation: None, Method: Suspension/Plate", "value": "inactive; negative"}, {"measurement": "mutagenic call", "setting": "Test System: Mouse lymphoma, Strain/Indicator: L5178Y (tk+/tk-), Metabolic Activation: Rat, Liver, S-9, Aroclor 1254, Method: Suspension/Plate", "value": "inactive; inconclusive (previous evaluation negative)"}]}
{"smiles": "Cc1c2c(c(C)c3c1ccc1ccccc13)C=C[C@@H](O)[C@@H]2O", "values": [{"measurement": "mutagenic call", "setting": "Test System: CHINESE HAMSTER V-79, Strain/Indicator: V-79/OUABAIN, Metabolic Activation: CELL-MEDIATED, Method: STANDARD PLATE", "value": "active; positive"}]}
